The test system of one data set is human TMEM16Aacd. The following applies: cited from earlier work.
A further data set has as its target X. tropicalis Tmem16a (Xenopus tropicalis, UniProt W8PFC5). Briefly: Whole-cell patch clamp (QPatch) of X. tropicalis Tmem16a transfected into HEK293 cells. The class given is cell-based. The procedure:
We cloned and expressed full-length X. tropicalis tmem16a in HEK293 cells. At 48 h post-transfection, channel conductance and pharmacological characteristics were examined by whole-cell voltage clamp. Tmem16a channel activity was evoked using membrane depolarisation in the presence of intracellular calcium, and resultant whole-cell currents measured using chloride-selective buffers.
HEK Flp-In-293 null cells (Thermo Fisher) were stored, thawed and cultured as described by the supplier, but without antibiotic supplementation of the growth medium. For transfections, cells were seeded in 75 cm^2 vented culture flasks at a density of 0.018 × 10^6 cells per cm^2 and maintained at 37 °C in 5% CO2 for 24 h, to ensure approximately 40% confluence at the point of transfection. Cells were transfected with 6 µg of pCS2-tmem16a plasmid in a 1:6 volume ratio with transfection reagent GeneJammer (Agilent), according to the manufacturer’s protocol. Transfected cells were maintained in antibiotic-free growth medium at 37 °C in 5% CO2 for 24 h. The transfection medium was then aspirated, replaced with complete growth medium containing 1% penicillin-streptomycin (GIBCO), and cells cultured for a further 24 h at 37 °C in 5% CO2 to achieve 70–80% confluence prior to electrophysiology studies. HEK cells expressing Tmem16a were harvested using a 2:1 volume ratio of Detachin (AMSBio) and 0.05% Trypsin-EDTA (GIBCO), and resuspended in CHO serum-free medium (GIBCO) supplemented with 25 mM HEPES (GIBCO) and 0.04 mg ml^−1 trypsin inhibitor (Sigma Aldrich) to a density of 2.5-5.0 × 10^6 cells ml^−1. […] To prevent clumping of the suspended cells prior to assay, the cell suspension was maintained by stirring gently but continually at room temperature for 20 min to 2 hours.
Single cell whole-cell patch clamp recordings were performed using the QPatch planar patch-clamp system (Sophion Biosciences). The automated platform resuspended the cells in extracellular buffer containing NMDG-Cl (130 mM), HEPES (10 mM), CaCl2 (2 mM) and MgCl2 (1 mM), adjusted to pH 7.30 using HCl and 325 mOsm using sucrose. On establishing single-cell giga-Ohm seals, cell membranes were ruptured by suction pulse and dialysed with intracellular solution containing NMDG-Cl (130 mM), EGTA (20 mM), CaCl2 (20 mM; calculated to deliver a free intracellular [Ca^2+] of 338 nM (https://somapp.ucdmc.ucdavis.edu/pharmacology/bers/maxchelator/webmaxc/webmaxcE.htm) at 22 °C to achieve high Tmem16a-mediated current activation for testing inhibitor compounds), HEPES (10 mM), BAPTA (10 mM), MgCl2 (1 mM) and Mg-ATP (2 mM), adjusted to pH 7.25 using HCl and 325 mOsm using sucrose. The calcium activation curve was achieved by varying CaCl2 concentration from 0 to 25.7 mM to generate a 0-1000 nM range of free intracellular [Ca^2+].
Whole-cell recordings were performed from a resting membrane potential of - 70 mV, applied across the cell membrane between an intracellular (working) and extracellular (reference) electrode in each QPatch recording well. To activate Tmem16a currents, the membrane was depolarised once every 20 s for a duration of 1 s. For concentration-response experiments, this depolarising step was set to + 70 mV. To test current-voltage relationship, the depolarisations were varied between − 90 and + 90 mV in 20 mV increments. Signals were subject to fourth-order Bessel filtering (sampling frequency 10 kHz, cut-off 3 kHz). Capacitance and series resistance were monitored throughout the recordings; data was only accepted from wells in which these parameters remained stable.
All current data was captured at the end of the 1 s depolarising voltage step.
For orientation: In patch-clamp work, channel activity is measured electrically.

A further data set relates to human TMEM16Aabc. The note with it: whole-cell patch clamp ref 65; cited from earlier work.
Data set [1] deals with background chloride current of sham HEK-293 transfects. The experiment in a line: Whole-cell patch clamp of sham-transfected HEK cells (background chloride current). Format: cell-based. The following applies: 100 µM CaCCinh-A01. An excerpt:
Methods: Pharmacology data was generated from 16 QPatch runs. […] This definition of ‘transfected’ vs ‘untransfected’ was established by comparing transfected cell recordings with ‘sham’ transfects, i.e. cells that had undergone the same transfection process but with the omission of plasmid DNA (Supplementary Figure S1). […] Cells with these characteristics were deemed to be expressing X. tropicalis Tmem16a, and only recordings from successfully-transfected cells which additionally passed seal/series resistance and capacitance quality control criteria, were used in analysis of X. tropicalis Tmem16a currents.

A further data set relates to human TMEM16A. The following applies: cited from earlier work.
In the next data set the test system is Tmem16a. Briefly: Wholemount immunofluorescence for Tmem16a in tadpole skin after morpholino injection. Format: in vivo, Xenopus tropicalis. The note with it: 15 ng MO injected into fertilised egg, tadpoles at NF38, vs MOC. Here is the method:
(§1) Embryos for microinjection were de-jellied for approximately five minutes in 0.1 X MMR containing 2% (w/v) L-cysteine (pH 7.8), and washed several times in 0.1 X MMR. Microinjections were performed at NF1/fertilised egg (or, where indicated in the text, NF4/8-cell stage) using a Picospritzer III microinjector (Intracel) to inject 1–4 nl volumes. During injection and for one hour after, embryos were maintained in 0.1 X MMR containing 2% (w/v) Ficoll™ 400 (Thermo Fisher). Antisense morpholino oligonucleotides (MO) and standard control MO (MOC) were designed by and purchased from Gene Tools LLC. MO sequences were: MOC 5′-[…]-3′; tmem16a splice MO 5’-[…]-3’. MOs were reconstituted to 20 ng nl^−1 in non-DEPC-treated nuclease-free water (Thermo Fisher) and stored in small aliquots in tightly-sealed vials at room temperature. MOs were heated at 65 °C for five minutes then vortexed before dilution/use, to ensure the MO was fully dissolved. […]
Wholemount chromogenic and fluorescence in situ hybridisation was performed as previously described[84],[85]. […] Chromogenic staining and fluorescence were visualised by stereomicroscopy (Leica M165 FC using Leica Application Suite X v5.2.2 software) and fluorescence by confocal imaging (Olympus IX81 using FV10-ASW v4.2 software). […] Fiji v2.14.0 software[88] was used to convert images into colours accesible to colour-blind readers.

Data set [2] has as its system MucXS secretion from tadpole skin. The experiment in a line: Ionomycin-induced MucXS secretion into tadpole media (slot blot, anti-MucXS). The class given is in vivo, Xenopus tropicalis. The note with it: 10 min, MO- vs MOC-injected embryos, three biological replicates, p = 0.0062. Here is the method:
as §1
Batches of 100 NF42 embryos were collected in 500 µl 0.01 X MMR in a single well of a 24-well plate. […] MucXS in unfractionated or fractionated media was detected via slot blotting and subsequent immunodetection with an anti-MucXS antibody. Quantification of signal from slot blots was achieved using Fiji v2.14.0 software to capture the raw integrated density of pixels for each signal band. […]

Setting [3] is: maximally-active current, 338 nM free [Ca2+]i (EC100), +70 mV, HEK293, mean ± SEM, read-out: IC50 X. tropicalis Tmem16a.

As usually defined, the IC50 is the concentration that inhibits the measured activity by half. The term EC50 denotes the concentration that produces a half-maximal response.

Like-named read-outs stand apart in the source and are kept apart here. Bounds are passed on as bounds.

Chain of X. tropicalis Tmem16a (W8PFC5 entry or part of it): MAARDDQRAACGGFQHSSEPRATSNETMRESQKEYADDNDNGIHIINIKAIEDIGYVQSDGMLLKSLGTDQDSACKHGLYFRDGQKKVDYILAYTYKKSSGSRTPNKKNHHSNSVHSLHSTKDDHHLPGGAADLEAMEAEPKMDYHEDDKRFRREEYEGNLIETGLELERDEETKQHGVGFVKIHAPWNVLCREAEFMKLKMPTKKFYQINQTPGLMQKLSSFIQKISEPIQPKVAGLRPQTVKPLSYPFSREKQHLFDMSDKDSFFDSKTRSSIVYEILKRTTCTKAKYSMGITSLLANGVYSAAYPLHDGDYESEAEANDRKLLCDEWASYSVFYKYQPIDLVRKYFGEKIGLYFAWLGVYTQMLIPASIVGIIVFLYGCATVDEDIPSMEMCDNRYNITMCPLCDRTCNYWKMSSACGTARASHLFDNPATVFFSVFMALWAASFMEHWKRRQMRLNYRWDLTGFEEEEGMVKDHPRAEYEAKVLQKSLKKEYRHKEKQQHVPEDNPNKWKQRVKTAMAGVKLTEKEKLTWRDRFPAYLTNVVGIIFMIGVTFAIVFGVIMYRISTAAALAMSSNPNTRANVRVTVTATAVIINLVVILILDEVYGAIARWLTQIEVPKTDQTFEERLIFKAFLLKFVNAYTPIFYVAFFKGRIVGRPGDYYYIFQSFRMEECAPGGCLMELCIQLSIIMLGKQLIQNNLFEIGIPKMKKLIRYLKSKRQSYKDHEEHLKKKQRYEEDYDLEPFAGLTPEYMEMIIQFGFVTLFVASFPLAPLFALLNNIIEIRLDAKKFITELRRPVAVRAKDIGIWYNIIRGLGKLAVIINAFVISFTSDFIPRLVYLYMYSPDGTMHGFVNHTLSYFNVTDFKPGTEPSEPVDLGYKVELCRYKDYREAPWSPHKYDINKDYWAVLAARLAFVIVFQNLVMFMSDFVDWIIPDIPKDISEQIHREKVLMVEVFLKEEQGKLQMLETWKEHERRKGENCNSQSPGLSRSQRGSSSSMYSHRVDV

In the case of `O=C(O)c1c2ccccc2cc2ccccc12` [9-AC], the IC50 in the data set with human TMEM16Aacd (whole-cell patch clamp ref 60) is 57.7 µM; on X. tropicalis Tmem16a (setting [3]), 146 ± 65.8 µM.

Take `COc1ccccc1/C=N/NC(=O)COc1ccc(Cl)cc1C` [Ani9]: at X. tropicalis Tmem16a (10 µM Ani9), the “Block of large slowly-activating current in tmem16a-transfected cells” value is “sensitivity to block”. The “Inhibition of evoked Tmem16a current” value on X. tropicalis Tmem16a (10 µM Ani9, 1 s step from -70 to +70 mV, 338 nM free [Ca2+]i) is recorded as “completely inhibited”. In addition, the “Inhibition of Tmem16a current conductance at varied [Ca2+]i” value at X. tropicalis Tmem16a (10 µM Ani9, all calcium concentrations, fixed depolarisation voltage) is listed as “inhibited at all calcium concentrations”. On X. tropicalis Tmem16a (setting [3]), the IC50 was 0.098 ± 0.009 µM.

Consider `CCc1oc2ccccc2c1C(=O)c1cc(Br)c(O)c(Br)c1` [Benzbromarone], for which the concentration for half-maximal inhibition (IC50) in the data set on human TMEM16Aabc is 3.05 µM; in the data set with human TMEM16Aacd (whole-cell patch clamp ref 63) it was 4.09 µM; in the data set with human TMEM16Aacd (whole-cell patch clamp ref 64) it was 2.35 µM; against X. tropicalis Tmem16a, 3.3 ± 1.45 µM.

For the compound `O=C(O)c1ccc(/C=C2\SC(=S)N(c3cccc(C(F)(F)F)c3)C2=O)cc1` [CFTR Inh-172], the 50% inhibitory concentration (IC50) at X. tropicalis Tmem16a (setting [3]) is over 30 µM.

For the compound `CC(C)(C)C1CCc2c(sc(NC(=O)c3ccco3)c2C(=O)O)C1` (stereo not shown) [CaCCinhA01], in data set [1], the “Block of background chloride current in sham transfects” value is given as “blocked”. On X. tropicalis Tmem16a (100 µM CaCCinh-A01), the “Block of large slowly-activating current in tmem16a-transfected cells” value is “sensitivity to block”. The IC50 at X. tropicalis Tmem16a (setting [3]) is 12.9 ± 1.96 µM; with human TMEM16A (whole-cell patch clamp ref 62) it was […].

For `COC1=C(OC)C(=O)C(CCCCCCCCCCO)=C(C)C1=O` [Idebenone], the IC50 at X. tropicalis Tmem16a (setting [3]) was over 30 µM. The “% inhibition human TMEM16A by 10 µM” value in the data set with human TMEM16A (10 µM, whole-cell patch clamp ref 61) was 54%. Moreover, the “% inhibition human TMEM16A by 30 µM” value in the data set with human TMEM16A (30 µM, whole-cell patch clamp ref 61) is reported as 90%.

`COc1cc(Nc2ccc([N+](=O)[O-])cc2C(=O)O)cc2ccccc12` [MONNA]: the half-maximal inhibitory concentration (IC50) in the data set on human TMEM16Aacd (whole-cell patch clamp ref 63) is 13.6 µM; at X. tropicalis Tmem16a (setting [3]), 11.9 ± 3.45 µM.

Consider `O=C(O)c1cccnc1Nc1cccc(C(F)(F)F)c1` [Niflumic acid], for which the half-maximal inhibitory concentration (IC50) in the data set with human TMEM16Aacd (whole-cell patch clamp ref 60) was 12.1 µM; with human TMEM16Aacd (whole-cell patch clamp ref 61) it was 8.34 µM; in the data set with human TMEM16Aacd (whole-cell patch clamp ref 63) it was 8.54 µM; at X. tropicalis Tmem16a it was 85.1 ± 19.1 µM.

Turning to `CCc1c(C)nc(SCC(=O)Nc2nc(-c3ccc(OC)cc3)cs2)[nH]c1=O` [T16inh-A01], the IC50 in the data set on human TMEM16Aacd (whole-cell patch clamp ref 60) is 1.51 µM; in the data set on human TMEM16Aacd (whole-cell patch clamp ref 63), over 30 µM; on X. tropicalis Tmem16a (setting [3]), over 30 µM. On X. tropicalis Tmem16a (maximal conductance, 338 nM free [Ca2+]i, +70 mV), the “Direct inhibition of X. tropicalis Tmem16a channel function” value is recorded as “did not directly inhibit”.

On to `[Ca+2]` [intracellular calcium, calcium], for which, at X. tropicalis Tmem16a (free [Ca2+]i varied, fixed depolarisation voltage, read-out: EC50 of intracellular calcium for current conductance), the concentration giving a half-maximal response (EC50) turned out to be 0.227 ± 0.043 µM.

As for “tmem16a splice MO: antisense morpholino oligonucleotide 5'-AATGTTCATTCTTTTTACCTCTTCA-3' targeting donor splice site of exon 2 of tmem16a pre-mRNA (all phosphorodiamidate morpholino (PMO))”, the “Tmem16a protein in the plasma membrane of SSCs in the tadpole skin” value in the data set with Tmem16a was “complete loss”. Further, the “Increase of MucXS secretion from the tadpole skin” value in data set [2] came out at 3 fold.

The values are drawn from paper PMC11514049, “The Tmem16a chloride channel is required for mucin maturation after secretion from goblet-like cells in the Xenopus tropicalis tadpole skin” (Scientific Reports, 2024).
